Assay results as given in ChEMBL document CHEMBL5532682, “Recent advances of tryptanthrin and its derivatives as potential anticancer agents” (RSC Med Chem, 2024).

Assays:
[1] = test system: NCI/ADR-RES; experiment: Antiproliferative activity against human MCF7ADR cells; type: functional, cell-based
[2] = test system: MCF7; experiment: Antiproliferative activity against human MCF7 cells; type: functional, cell-based
[3] = test system: A549; experiment: Antiproliferative activity against human A549 cells; type: functional, cell-based
[4] = test system: A549; experiment: Antiproliferative activity against human A549 cells incubated by 48 hrs by MTT assay; type: functional, cell-based; conditions: A549, 48 h
[5] = test system: PC-3; experiment: Antiproliferative activity against human PC-3 cells incubated by 48 hrs by MTT assay; type: functional, cell-based; conditions: PC-3, 48 h
[6] = Antiproliferative activity against mouse MC3T3-E1 cells; type: toxicity, cell-based
[7] = test system: Hep 3B2; experiment: Anticancer activity against human Hep3B cells measured after 48 hrs; type: functional, cell-based
[8] = test system: K562; experiment: Antiproliferative activity against human K562 cells incubated by 48 hrs by MTT assay; type: functional, cell-based; conditions: K562, 48 h
[9] = test system: HepG2; experiment: Antiproliferative activity against human HepG2 cells incubated by 48 hrs by MTT assay; type: functional, cell-based; conditions: HepG2, 48 h
[10] = test system: T-24; experiment: Antiproliferative activity against human T24 cells assessed as inhibition of cell growth; type: functional, cell-based
[11] = Antiproliferative activity against human HL7702 cells assessed as inhibition of cell growth; type: toxicity, cell-based; conditions: HL7702 (L02) cells
[12] = test system: MCF7; experiment: Cytotoxicity against human MCF7 cells measured after 3 days by MTT assay; type: functional, cell-based; conditions: MCF7, 72 h
[13] = test system: Hep 3B2; experiment: Antiproliferative activity against human Hep3B cells measured after 48 hrs by MTT assay; type: functional, cell-based
[14] = test system: SK-OV-3; experiment: Antiproliferative activity against human SK-OV-3 cells assessed as inhibition of cell growth; type: functional, cell-based
[15] = test system: SK-OV-3; experiment: Cytotoxicity against human SK-OV-3 cells measured after 3 days by MTT assay; type: functional, cell-based; conditions: SK-OV-3, 72 h
[16] = test system: HeLa; experiment: Antiproliferative activity against human HeLa cells assessed as cell growth inhibition; type: functional, cell-based
[17] = test system: HepG2; experiment: Antiproliferative activity against human HepG2 cells assessed as inhibition of cell growth; type: functional, cell-based
[18] = test system: A498; experiment: Cytotoxicity against human A498 cells measured after 3 days by MTT assay; type: functional, cell-based; conditions: A498, 72 h
[19] = test system: A549; experiment: Antiproliferative activity against human A549 cells assessed as cell growth inhibition; type: functional, cell-based
[20] = Antiproliferative activity against human HL7702 cells assessed as inhibition of cell viability; type: toxicity, cell-based; conditions: HL7702 (L02) cells
[21] = test system: A549/CDDP; experiment: Antiproliferative activity against human A549/DDP cells assessed as inhibition of cell viability; type: functional, cell-based
[22] = test system: A549; experiment: Antiproliferative activity against human A549 cells assessed as inhibition of cell viability; type: functional, cell-based
[23] = test system: DU-145; experiment: Growth inhibition of human DU-145 cells assessed as reduction in cell viability; type: functional
[24] = test system: U-251; experiment: Growth inhibition of human U-251 cells assessed as reduction in cell viability; type: functional
[25] = test system: SW-620; experiment: Growth inhibition of human SW620 cells assessed as reduction in cell viability; type: functional
[26] = test system: NCI/ADR-RES; experiment: Growth inhibition of human MCF7ADR cells assessed as reduction in cell viability; type: functional
[27] = test system: NCI-H522; experiment: Growth inhibition of human NCI-H522 cells assessed as reduction in cell viability; type: functional
[28] = test system: A498; experiment: Growth inhibition of human A498 cells assessed as reduction in cell viability; type: functional
[29] = test system: M14; experiment: Growth inhibition of human M14 cells assessed as reduction in cell viability; type: functional
[30] = test system: SK-OV-3; experiment: Growth inhibition of human SK-OV-3 cells assessed as reduction in cell viability; type: functional
[31] = Antiproliferative activity against human LX-2 cells; type: toxicity, cell-based
[32] = test system: B16-F10; experiment: Antiproliferative activity against mouse B16-F10 cells; type: functional, cell-based
[33] = test system: HeLa; experiment: Antiproliferative activity against human HeLa cells; type: functional, cell-based
[34] = test system: HeLa; experiment: Antiproliferative activity against human HeLa cells incubated for 48 hrs; type: functional, cell-based
[35] = test system: CT26; experiment: Antiproliferative activity against mouse CT26 cells incubated for 48 hrs; type: functional, cell-based; conditions: CT26, 48 h
[36] = test system: K562; experiment: Antiproliferative activity against human K562 cells incubated for 48 hrs; type: functional, cell-based; conditions: K562, 48 h
[37] = test system: MCF7; experiment: Antiproliferative activity against human MCF7 cells assessed as inhibition of cell growth; type: functional, cell-based
[38] = test system: HeLa; experiment: Antiproliferative activity against human HeLa cells assessed as inhibition of cell growth; type: functional, cell-based
[39] = test system: A549; experiment: Antiproliferative activity against human A549 cells assessed as inhibition of cell growth; type: functional, cell-based
[40] = Cytotoxicity against human HEK293 cells assessed as inhibition of cell growth; type: toxicity, cell-based
[41] = test system: HT-29; experiment: Antiproliferative activity against human HT-29 cells; type: functional, cell-based
[42] = test system: MDA-MB-231; experiment: Antiproliferative activity against human MDA-MB-231 cells; type: functional, cell-based
[43] = Cytotoxicity activity against human HDF cells; type: toxicity, cell-based; conditions: HDF cells (NHDF)
[44] = test system: PANC-1; experiment: Antiproliferative activity against human PANC-1 cells; type: functional, cell-based

Work on `O=c1c2ccccc2nc2n1-c1ccccc1/C2=N\O` yielded an IC50 [1] of 75.3 µM and an IC50 [2] of 82.1 µM.

In the case of `O=C1c2cc(F)ccc2-n2c1nc1ccccc1c2=O`, the IC50 [3] is reported as 10.9 µM, the IC50 [4] is reported as 2.36 µM and the IC50 [5] is reported as 10.6 µM. It also gave an IC50 [6] of 97 µM, an IC50 [7] of 4.1 µM and an IC50 [8] of 2.66 µM. The IC50 [9] was 1.97 µM.

Work on `O=C1c2cc(I)ccc2-n2c1nc1ccccc1c2=O` yielded an IC50 [10] of 85.2 µM, an IC50 [11] of 94.1 µM and an IC50 [12] of 1.5 µM. For the same compound, the IC50 [13] was 2.4 µM, the IC50 [14] was 79.1 µM and the IC50 [15] was 0.65 µM. It also gave an IC50 [16] greater than 150 µM, an IC50 [17] of 88.6 µM and an IC50 [18] of 1.86 µM. For the same compound, the IC50 [19] was greater than 150 µM.

`c1ccc(CNCc2ccccn2)nc1` showed an IC50 [20] greater than 100 µM, an IC50 [21] greater than 100 µM and an IC50 [22] greater than 100 µM.

Work on `O=C1c2cc3ccccc3cc2-n2c1nc1ccccc1c2=O` yielded a GI50 [23] of 50 µM, a GI50 [24] of 15 µM and a GI50 [25] of 8 µM. It also gave a GI50 [26] of 15 µM, a GI50 [27] of 50 µM and a GI50 [28] of 60 µM. The GI50 [29] was 40 µM and the GI50 [30] was 30 µM.

`O=c1c2ccccc2nc2n1-c1ccccc1/C2=N\OCCN1CCCC1` gave a GI50 [23] of 2 µM.

Compound `O=C1c2cc(Cl)ccc2-n2c1nc1ccccc1c2=O` has an IC50 [13] of 3.7 µM, an IC50 [3] of 22.6 µM and an IC50 [4] of 4.21 µM. For the same compound, the IC50 [5] was 8.48 µM, the IC50 [6] was greater than 100 µM and the IC50 [8] was 3.67 µM. The IC50 [9] was 2.95 µM.

Compound `O=C1c2ccccc2-n2c1nc1ccc(F)cc1c2=O` has an IC50 [4] of 2.34 µM, an IC50 [5] of 9.7 µM and an IC50 [7] greater than 20 µM. It also gave an IC50 [8] of 6.77 µM and an IC50 [9] of 5.63 µM.

Compound `Cc1ccc2c(c1)C(=O)c1nc3ccccc3c(=O)n1-2` has an IC50 [7] of 6.5 µM.

Compound `N/N=C1/c2cc(F)ccc2-n2c1nc1ccccc1c2=O` has an IC50 [12] of 1.4 µM, an IC50 [15] of 8.51 µM and an IC50 [18] of 1.26 µM.

For `O=C1c2cc([N+](=O)[O-])ccc2-n2c1nc1ccccc1c2=O`, the GI50 [23] was 0.15 µM, the GI50 [24] was greater than 100 µM and the GI50 [25] was 4 µM. For the same compound, the GI50 [26] was 0.7 µM, the IC50 [4] was 6.88 µM and the GI50 [27] was 0.7 µM. For the same compound, the GI50 [28] was 3 µM, the IC50 [31] was 0.83 µM and the IC50 [32] was 0.49 µM. It also gave a GI50 [29] of 0.8 µM, an IC50 [33] of 0.34 µM and a GI50 [30] of 5 µM. The IC50 [5] was 11.8 µM, the IC50 [7] was 1.4 µM and the IC50 [8] was 8.05 µM. For the same compound, the IC50 [9] was 7.89 µM.

Work on `C=C[C@]1(O)c2ccccc2-n2c1nc1ccccc1c2=O` yielded a GI50 [23] of 10 µM, a GI50 [25] of 10 µM and a GI50 [26] of 20 µM. It also gave a GI50 [29] of 8 µM and a GI50 [30] of 6 µM.

For `C[C@]1(O)c2ccccc2-n2c1nc1ccccc1c2=O`, the GI50 [23] was greater than 100 µM, the GI50 [24] was greater than 100 µM and the GI50 [25] was greater than 100 µM. The GI50 [26] was greater than 100 µM, the GI50 [27] was greater than 100 µM and the GI50 [28] was greater than 100 µM. The GI50 [29] was greater than 100 µM and the GI50 [30] was greater than 100 µM.

Work on `C=C[C@@H]1[C@@]2(c3ccccc3)[C@H]3CCCN3[C@@]3(c4ccccc4-n4c3nc3ccccc3c4=O)[C@@]12c1ccccc1` yielded an IC50 [34] greater than 50 µM, an IC50 [35] of 10 µM and an IC50 [36] greater than 50 µM.

`O=C1C2C=CC=CC2=NC2/C(=N\Nc3nc(-c4ccc(Br)cc4)cs3)c3ccccc3N12` (stereo unspecified) gave an IC50 [37] of 12.7 µM, an IC50 [38] of 19.3 µM and an IC50 [39] of 16.9 µM. The IC50 [40] was 73.3 µM.

Work on `Cc1nn(Cl)c2c1[C@@]1(C(C#N)=CO2)c2cc(-c3cccc(Cl)c3)ccc2-n2c1nc1ccccc1c2=O` yielded an IC50 [41] greater than 100 µM, an IC50 [42] of 92.8 µM and an IC50 [43] greater than 100 µM. The IC50 [44] was 60.6 µM.

Work on `O=C1c2cc(Br)ccc2-n2c1nc1ccc(F)cc1c2=O` yielded an IC50 [7] of 5.8 µM.

Work on `Cc1nn(Br)c2c1[C@@]1(C(C#N)=CO2)c2cc(-c3ccccc3)ccc2-n2c1nc1ccccc1c2=O` yielded an IC50 [41] greater than 100 µM, an IC50 [42] of 65.4 µM and an IC50 [43] greater than 100 µM. For the same compound, the IC50 [44] was 85.3 µM.

`Cc1nn(Cl)c2c1[C@@]1(C(C#N)=C(N)O2)c2cc(-c3ccccc3)ccc2-n2c1nc1ccccc1c2=O` gave an IC50 [41] greater than 100 µM, an IC50 [42] of 62.8 µM and an IC50 [43] greater than 100 µM. For the same compound, the IC50 [44] was greater than 100 µM.
